The values that follow come from PubChem BioAssay AID252 (DTP/NCI, 2004).

Where “and” joins values, the source holds several entries; their conditions need not be identical. Equal entries are not always repeated. Inconclusive results and toxic doses are left out.

The test concerns BDF1 mice, intracerebral L1210 leukemia, survival T/C. Kind of test: NCI In Vivo Anticancer Drug Screen. Data for tumor model L1210 Leukemia (intracerebral) in B6D2F1 (BDF1) mice. Conditions: higher = longer survival. Summed up:
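Readout is the T/C ratio: survival of compound-treated animals over that of vehicle-treated controls, in mice bearing transplantable tumour.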

The mark [1] stands for this setting: endpoint: mean survival time, dose: 12.0 mg/kg/injection, schedule: Q01DX001 (ip), vehicle: saline with Tween-80.
Where [2] appears, read: endpoint: mean survival time, dose: 18.0 mg/kg/injection, schedule: Q01DX001 (ip), vehicle: saline with Tween-80.
[3] abbreviates: endpoint: mean survival time, dose: 26.0 mg/kg/injection, schedule: Q01DX001 (ip), vehicle: saline with Tween-80.

As to `O=NN(CCCl)C(=O)N[C@H]1CCC[C@@H](O)C1`, the T/C is 124 % of control under setting [1]; 164 % of control under setting [2]; 420 % of control under setting [3]; 452 % of control (endpoint: mean survival time, dose: 40.0 mg/kg/injection, schedule: Q01DX001 (ip), vehicle: saline with Tween-80); 303 % of control (endpoint: mean survival time, dose: 60.0 mg/kg/injection, schedule: Q01DX001 (ip), vehicle: saline with Tween-80); 90 % of control (endpoint: mean survival time, dose: 90.0 mg/kg/injection, schedule: Q01DX001 (ip), vehicle: saline with Tween-80).
Consider `O=NN(CCF)C(=O)NC1CS(=O)(=O)CS(=O)(=O)C1`, for which the T/C reads like this: (endpoint: mean survival time, dose: 11.0 mg/kg/injection, schedule: Q01DX001 (ip), vehicle: other) 113 % of control; (endpoint: mean survival time, dose: 17.0 mg/kg/injection, schedule: Q01DX001 (ip), vehicle: other) 117 % of control; (endpoint: mean survival time, dose: 25.0 mg/kg/injection, schedule: Q01DX001 (ip), vehicle: other) 120 % of control.
Consider `COc1cccc(NC(=O)N(CCCl)N=O)c1`, for which the T/C reads like this: (endpoint: mean survival time, dose: 18.0 mg/kg/injection, schedule: Q01DX001 (ip), vehicle: carboxymethylcellulose (CMC)) 115 % of control; (endpoint: mean survival time, dose: 27.0 mg/kg/injection, schedule: Q01DX001 (ip), vehicle: carboxymethylcellulose (CMC)) 115 % of control; (endpoint: mean survival time, dose: 40.0 mg/kg/injection, schedule: Q01DX001 (ip), vehicle: carboxymethylcellulose (CMC)) 121 % of control; (endpoint: mean survival time, dose: 60.0 mg/kg/injection, schedule: Q01DX001 (ip), vehicle: carboxymethylcellulose (CMC)) 97 % of control.
For `N#CCCN1c2ccccc2Sc2ccccc21`, the T/C reads like this: (endpoint: mean survival time, dose: 12.5 mg/kg/injection, schedule: Q04DX003 (ip), vehicle: Klucel (hydroxypropylcellulose) (HPC)) 100 % of control; (endpoint: mean survival time, dose: 25.0 mg/kg/injection, schedule: Q04DX003 (ip), vehicle: Klucel (hydroxypropylcellulose) (HPC)) 96 % of control; (endpoint: mean survival time, dose: 50.0 mg/kg/injection, schedule: Q04DX003 (ip), vehicle: Klucel (hydroxypropylcellulose) (HPC)) 109 % of control; (endpoint: mean survival time, dose: 100.0 mg/kg/injection, schedule: Q04DX003 (ip), vehicle: Klucel (hydroxypropylcellulose) (HPC)) 104 % of control; (endpoint: mean survival time, dose: 200.0 mg/kg/injection, schedule: Q04DX003 (ip), vehicle: Klucel (hydroxypropylcellulose) (HPC)) 98 % of control.
Consider `Nc1nc(=S)c2ncn(C3OC(CO)C(O)C3O)c2[nH]1` (stereo not drawn), for which the T/C (endpoint: mean survival time, dose: 0.66 mg/kg/injection, schedule: Q01DX015 (ip), vehicle: carboxymethylcellulose (CMC)) is 105 % of control; the T/C (endpoint: mean survival time, dose: 1.0 mg/kg/injection, schedule: Q01DX015 (ip), vehicle: carboxymethylcellulose (CMC)) is 115 % of control; the T/C (endpoint: mean survival time, dose: 1.5 mg/kg/injection, schedule: Q01DX015 (ip), vehicle: carboxymethylcellulose (CMC)) is 121 % of control; the T/C (endpoint: mean survival time, dose: 95.0 mg/kg/injection, schedule: Q01DX001 (ip), vehicle: carboxymethylcellulose (CMC)) is 157 % of control; the T/C (endpoint: mean survival time, dose: 144.0 mg/kg/injection, schedule: Q01DX001 (ip), vehicle: carboxymethylcellulose (CMC)) is 171 % of control; the T/C (endpoint: mean survival time, dose: 215.0 mg/kg/injection, schedule: Q01DX001 (ip), vehicle: carboxymethylcellulose (CMC)) was 152 % of control.
On to `CCOC(N)=O`, for which the T/C runs as follows: (endpoint: mean survival time, dose: 1074.0 mg/kg/injection, schedule: Q01DX001 (ip), vehicle: saline) 104 % of control; (endpoint: mean survival time, dose: 1601.0 mg/kg/injection, schedule: Q01DX001 (ip), vehicle: saline) 106 % of control.
For `O=C1C(NCCO)=C(N2CC2)C(=O)C(NCCO)=C1N1CC1`, the T/C is, setting by setting: (endpoint: mean survival time, dose: 0.18 mg/kg/injection, schedule: Q01DX009 (ip), vehicle: saline) 108 % of control and 116 % of control; (endpoint: mean survival time, dose: 0.37 mg/kg/injection, schedule: Q01DX009 (ip), vehicle: saline) 114 % of control; (endpoint: mean survival time, dose: 1.5 mg/kg/injection, schedule: Q01DX009 (ip), vehicle: saline) 98 % of control.
As to `CCCCCCCCSc1ncnc2c1ncn2CC`, the T/C reads like this: (endpoint: mean survival time, dose: 62.0 mg/kg/injection, schedule: Q01DX015 (ip), vehicle: carboxymethylcellulose (CMC)) 97 % of control; (endpoint: mean survival time, dose: 125.0 mg/kg/injection, schedule: Q01DX015 (ip), vehicle: carboxymethylcellulose (CMC)) 103 % of control; (endpoint: mean survival time, dose: 250.0 mg/kg/injection, schedule: Q01DX015 (ip), vehicle: carboxymethylcellulose (CMC)) 116 % of control; (endpoint: mean survival time, dose: 500.0 mg/kg/injection, schedule: Q01DX015 (ip), vehicle: carboxymethylcellulose (CMC)) 94 % of control.
Turning to `O=C(NC1=C(N2CC2)C(=O)C(NC(=O)OCCO)=C(N2CC2)C1=O)OCCO`, the T/C (endpoint: median survival time, dose: 0.18 mg/kg/injection, schedule: Q01DX009 (ip), vehicle: saline) was 100 % of control; the T/C (endpoint: median survival time, dose: 0.39 mg/kg/injection, schedule: Q01DX009 (ip), vehicle: saline) is 97 % of control; the T/C (endpoint: median survival time, dose: 0.75 mg/kg/injection, schedule: Q01DX009 (ip), vehicle: saline) was 96 % of control and 97 % of control; the T/C (endpoint: median survival time, dose: 1.5 mg/kg/injection, schedule: Q01DX009 (ip), vehicle: saline) is 91 % of control and 100 % of control; the T/C (endpoint: median survival time, dose: 3.0 mg/kg/injection, schedule: Q01DX009 (ip), vehicle: saline) was 108 % of control and 101 % of control; the T/C (endpoint: median survival time, dose: 6.0 mg/kg/injection, schedule: Q01DX009 (ip), vehicle: saline) is 122 % of control and 98 % of control.
As for `O=NN(CCF)C(=O)Nc1c[nH]c(=O)[nH]c1=O`, the T/C was 103 % of control (endpoint: mean survival time, dose: 9.0 mg/kg/injection, schedule: Q01DX001 (ip), vehicle: carboxymethylcellulose (CMC)); 105 % of control (endpoint: mean survival time, dose: 13.0 mg/kg/injection, schedule: Q01DX001 (ip), vehicle: carboxymethylcellulose (CMC)); 110 % of control (endpoint: mean survival time, dose: 20.0 mg/kg/injection, schedule: Q01DX001 (ip), vehicle: carboxymethylcellulose (CMC)).
For the molecule `Nc1nc2n[nH]nc2c(=O)[nH]1`, the T/C by setting is: (endpoint: mean survival time, dose: 89.0 mg/kg/injection, schedule: Q01DX015 (ip), vehicle: water) 170 % of control; (endpoint: mean survival time, dose: 117.0 mg/kg/injection, schedule: Q01DX001 (ip), vehicle: carboxymethylcellulose (CMC)) 108 % of control; (endpoint: mean survival time, dose: 179.0 mg/kg/injection, schedule: Q01DX001 (ip), vehicle: carboxymethylcellulose (CMC)) 107 % of control; (endpoint: mean survival time, dose: 267.0 mg/kg/injection, schedule: Q01DX001 (ip), vehicle: carboxymethylcellulose (CMC)) 105 % of control.
As for `O=C1C(NC(=O)C2CCCCC2)=C(N2CC2)C(=O)C(NC(=O)C2CCCCC2)=C1N1CC1`, the T/C reads like this: (endpoint: mean survival time, dose: 25.0 mg/kg/injection, schedule: Q01DX009 (ip), vehicle: Klucel (hydroxypropylcellulose) (HPC)) 111 % of control; (endpoint: mean survival time, dose: 50.0 mg/kg/injection, schedule: Q01DX009 (ip), vehicle: Klucel (hydroxypropylcellulose) (HPC)) 101 % of control and 102 % of control and 241 % of control; (endpoint: mean survival time, dose: 50.0 mg/kg/injection, schedule: Q01DX Z (ip), vehicle: carboxymethylcellulose (CMC)) 104 % of control; (endpoint: mean survival time, dose: 100.0 mg/kg/injection, schedule: Q01DX Z (ip), vehicle: carboxymethylcellulose (CMC)) 103 % of control; (endpoint: mean survival time, dose: 200.0 mg/kg/injection, schedule: Q01DX009 (ip), vehicle: Klucel (hydroxypropylcellulose) (HPC)) 105 % of control and 115 % of control and 119 % of control; (endpoint: mean survival time, dose: 200.0 mg/kg/injection, schedule: Q01DX Z (ip), vehicle: carboxymethylcellulose (CMC)) 103 % of control. Besides, the T/C (endpoint: mean survival time, dose: 400.0 mg/kg/injection, schedule: Q01DX009 (ip), vehicle: Klucel (hydroxypropylcellulose) (HPC)) is 119 % of control and 97 % of control; the T/C (endpoint: mean survival time, dose: 400.0 mg/kg/injection, schedule: Q01DX Z (ip), vehicle: carboxymethylcellulose (CMC)) is 116 % of control; the T/C (endpoint: mean survival time, dose: 440.0 mg/kg/injection, schedule: Q01DX001 (ip), vehicle: carboxymethylcellulose (CMC)) was 96 % of control and 98 % of control; the T/C (endpoint: mean survival time, dose: 670.0 mg/kg/injection, schedule: Q01DX001 (ip), vehicle: carboxymethylcellulose (CMC)) is 104 % of control and 97 % of control; the T/C (endpoint: mean survival time, dose: 800.0 mg/kg/injection, schedule: Q01DX009 (ip), vehicle: Klucel (hydroxypropylcellulose) (HPC)) was 104 % of control; the T/C (endpoint: mean survival time, dose: 1000.0 mg/kg/injection, schedule: Q01DX001 (ip), vehicle: carboxymethylcellulose (CMC)) was 102 % of control and 103 % of control.
Consider `O=NN(CCCl)C(=O)N[C@@H]1CCCC[C@H]1O`, for which the T/C runs as follows: under setting [1], 350 % of control; under setting [2], 463 % of control; under setting [3], 175 % of control.
Consider `O=c1[nH]c(=O)n([C@H]2CCCO2)cc1F`, for which the T/C is 95 % of control (endpoint: median survival time, dose: 23.0 mg/kg/injection, schedule: Q01DX009 (ip), vehicle: water); 107 % of control (endpoint: median survival time, dose: 39.0 mg/kg/injection, schedule: Q01DX009 (ip), vehicle: water); 101 % of control (endpoint: median survival time, dose: 65.0 mg/kg/injection, schedule: Q01DX009 (ip), vehicle: water); 97 % of control (endpoint: median survival time, dose: 65.0 mg/kg/injection, schedule: Q04DX003 (ip), vehicle: water); 99 % of control (endpoint: median survival time, dose: 108.0 mg/kg/injection, schedule: Q04DX003 (ip), vehicle: water); 97 % of control (endpoint: median survival time, dose: 180.0 mg/kg/injection, schedule: Q01DX009 (ip), vehicle: water). Also, under “endpoint: median survival time, dose: 180.0 mg/kg/injection, schedule: Q04DX003 (ip), vehicle: water”, the T/C is 111 % of control.
